Measurements published in patent US9717737B2, “Vacuolin-1 as an inhibitor of autophagy and endosomal trafficking and the use thereof for inhibiting tumor progression” (The University of Hong Kong, priority 2014, dated 2017).

Tests used:
Rab5 = target: T1, Rab5 (Homo sapiens, UniProt P20339); experiment: GST-tagged Rabaptin5 pull-down assay for active Rab5; assay type: cell-based; conditions: HeLa cells, 1 μM
T1 construct: results of a GST-tagged Rabaptin5 pull-down assay in HeLa cells showing active Rab5 in cells treated with vacuolin-1 (1 μM); endogenous in cells; host or cells: HeLa cells
T1 sequence (P20339 1-215): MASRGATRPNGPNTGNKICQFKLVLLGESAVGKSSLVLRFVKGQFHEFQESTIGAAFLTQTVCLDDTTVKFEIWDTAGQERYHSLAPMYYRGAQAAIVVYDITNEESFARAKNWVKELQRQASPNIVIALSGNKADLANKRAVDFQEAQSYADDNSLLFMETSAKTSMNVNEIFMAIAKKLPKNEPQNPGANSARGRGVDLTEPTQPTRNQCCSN
Description: Glutathione S-Transferase (GST) Pull-Down Assay—Cells were collected and lysed in an ice-cold EBC lysis buffer described previously. Lysates were clarified by centrifugation at 13,000 g for 10 min at 4° C., and equal amount of protein (500 μg) from each supernatant was incubated with 30 μl of GST-RSBD bound to the 30 μl glutathione—Sepharose beads for 1 h at 4° C. on a rotating mixer. The beads was subsequently washed and resuspended in the standard SDS-sample buffer, boiled and subjected to SDS-PAGE (15% gel), followed by immunoblot analysis with the anti-Rab5 mAb.

[1] = system: human lung cancer stem cells (hLCSCs); experiment: Autophagy inhibition in lung cancer stem cells; assay type: cell-based
Description: (§1) Cancer stem cells (CSCs), a subpopulation of cells within tumors, actually drive tumor growth and recurrence. CSCs are resistant to many current cancer treatments, including chemo- and radiation therapy, thus they can survive these therapy to regenerate new tumors. […] Therefore, it is of great interest to assess the anti-tumor effects of vacuolin-1 on CSCs.

HeLa cells [2] = experiment: Immunofluorescence staining of GFP-LC3 puncta and RFP-Lamp1; assay type: cell-based; conditions: 1 μM
Description: Western blot and Immunofluorescence staining analyses—Both assays were performed as described previously (Lu et al., 2013).

HeLa cells [3] = experiment: GPN induced lysosomal Ca2+ release in Fura-2 loaded cells; assay type: cell-based; conditions: 1 μM pretreatment 5 hours, GPN 200 μM
Description: Intracellular Ca^2+ measurement—Cells were cultured in 24-well plates at the density of 7×10^4 cells/well in regular medium overnight and were labeled with 4 μM Fura-2 AM (Invitrogen) in regular HMSS at room temperature for 30 min. The cells were then washed with calcium-free HMSS containing 2 mM EGTA three times and incubated in the presence or absence of vacuolin-1 at room temperature for another 10 min. Cells were put on the stage of an Olympus inverted epifluorescence microscope and visualized using a 20× objective. Fluorescence images were obtained by alternate excitation at 340 nm and 380 nm with emission set at 510 nm. Images were collected by a CCD camera every 3 or 6 seconds and analyzed by Cell R imaging software.
Since lysosome is also a major intracellular Ca^2+ pool, and Ca^2+ and protons are tightly coupled in lysosomes (Morgan et al., 2011), it was also assessed whether vacuolin-1 treatment affects the lysosomal Ca^2+ content. Treatment of cells with glycyl-1-phenylalanine 2-naphthylamide (GPN) selectively disrupts the lysosomal membrane (Jadot et al., 2001), thereby releasing the lysosomal Ca^2+ (Srinivas et al., 2002).

[4] = system: RFP-GFP-LC3 expressing HeLa cells; experiment: RFP-GFP-LC3 (tfLC3) fluorescence image-based autophagy assay; assay type: cell-based
Description: Prompted by the fact that many available autophagy chemical modulators lack either potency or specificity (Kimura et al., 2013), a fluorescence image-based assay was set up to screen small molecules affecting autophagy. HeLa cells, an autophagy competent cell line, were infected with lentiviruses carrying expression cassettes that encode RFP-GFP-LC3 (tfLC3) (Kimura et al., 2007). Thus, the LC3-II positive autophagosomes are labeled with both GFP and RFP signals shown as yellow puncta, and after fusion with lysosomes, autolysosomes are shown as red only puncta because GFP loses its fluorescence in acidic pH.
Next, a panel of small chemicals that are commercially available and have been previously shown to affect vesicle trafficking or organelle morphology were selected and screened for their effects on autophagy regulation in tfLC3 expressing HeLa cells (data not shown).

CNE-1 and HONE-1 cells [5] = experiment: Colony formation assay, nasopharyngeal carcinoma cells; assay type: cell-based, human; conditions: CNE-1 or HONE-1 cells
Description: (§2) Although CQ has already been applied to treat a wide spectrum of human cancers, CQ induces ocular or renal toxicity and easily triggers drug resistance (Kimura et al., 2013). […] We first investigated the anti-tumor effects of vacuolin-1 in two nasopharyngeal carcinoma cell lines, CNE-1 and HONE-1. […] Alternatively, colony formation assay was performed to assess whether vacuolin-1 affects the ability of a single tumor cell to grow into a colony. […] We subsequently performed wound healing assay to assess whether vacuolin-1 affects the migration of tumor cells. […] Obviously, vacuolin-1 is an efficient anti-tumor agent in vitro.

[6] = system: human lung cancer stem cells (hLCSCs); experiment: Invasion of hLCSCs; assay type: cell-based; conditions: >10 μM
Description: as §1

[7] = system: HeLa, PC3, HepG2, MCF7, and A549 cells; assay type: cell-based
Description: MTT cell proliferation assay—Cells were treated in four replicates and seeded into 96-well plate. Following drug treatment, MTT solution of 20 μl for every 100 μl medium was added to wells and incubated for 2 hours, followed by the addition of 150 μL of the DMSO solution to each well. The final reaction product, a purple formazan solution, was detected by a microplate reader (Techan infinite M200) for absorbance at a wavelength of 570 nm and a reference wavelength of 630 nm.

Acute toxicity in mice = assay type: in vivo; conditions: young adult mice
Description: (§3) We first assessed the ability of vacuolin-1 to suppress LCSC tumor xenograft in BALB/c nude mice. Briefly, 1×10^4 lung cancer stem cells (LCSCs, 3rd generation) were suspended in Matrigel (BD Biosciences) at a ratio of 1:1, and 200 iL of cells was subcutaneously injected into the back of nude mice. The tumor volume was measured every five days after injection and calculated from the formula: length×width×depth×π/6. Mice were removed from the study when their tumor volumes exceed 2000 mm^3 (FIG. 18A). […] Also, we tested the acute toxicity of vacuolin-1 in mice.

CNE-1 and HONE-1 cells [8] = experiment: Wound healing assay; assay type: cell-based, human
Description: as §2

LCSC tumor xenograft = LCSC tumor xenograft in BALB/c nude mice; assay type: in vivo
Description: as §3

[9] = system: human lung cancer stem cells (hLCSCs); experiment: Migration of hLCSCs; assay type: cell-based; conditions: >10 μM
Description: as §1

[10] = nude mice, intratumoral injection 5 mg/kg twice a week

What does the source list for `Ic1cccc(/C=N/Nc2nc(N3CCOCC3)nc(N(c3ccccc3)c3ccccc3)n2)c1` [vacuolin-1]?
Rab5 activation (Rab5-GTP pull-down) (Rab5): markedly activated Rab5; autophagy inhibition potency in hLCSCs relative to other tumor cell lines (times less potent) [1]: 10 times; GFP-LC3 puncta (HeLa cells [2]): greatly increased; co-localization of GFP-LC3 puncta with Lamp1 (HeLa cells [2]): did not co-localize with Lamp1; GPN induced lysosomal Ca2+ release (HeLa cells [3]): significantly lowered; LC3 puncta (yellow = autophagosomes, red only = autolysosomes) [4]: potently induced LC3 yellow puncta, not red puncta; size and number of colonies generated from single cell (CNE-1 and HONE-1 cells [5]): dramatically reduced the size and number of colonies; invasion of hLCSCs [6]: almost completely inhibited; cell toxicity (MTT cell viability) [7]: much less cell toxicity than CQ; activity and weight gain compared to control (Acute toxicity in mice; intraperitoneal 250 mg/kg, after two weeks): normal activity and weight gain; acute toxicity (Acute toxicity in mice; intraperitoneal injection 250 mg/kg): little acute toxicity; migration of tumor cells (wound healing) (CNE-1 and HONE-1 cells [8]): efficiently suppressed the migration; autophagy in tumors (LCSC tumor xenograft; LCSC xenograft, vacuolin-1 treatment): markedly inhibited autophagy; tumor growth of LCSC xenograft (LCSC tumor xenograft; [10]): markedly inhibited tumor growth; weight gain of xenograft mice (LCSC tumor xenograft; [10]): little effects; migration of hLCSCs [9]: almost completely inhibited
